Experimental data as given in ChEMBL document CHEMBL1201862, “PubChem BioAssay data set” (2004).
One block for each compound: values may come before it. The source made the active and inactive calls.

Legend:
J774.A1 = assay: Confirmation of image-based Screening Assay for Inhibitors of Phagocytosis. [Related pubchem assays (depositor defined):AID1029, AID1643]; format: functional, cell-based; settings: Mus musculus
[1] = inhibitors of SNCA 5'UTR-driven reporter translation, confirmation, H4 neuroglioma cells, luminescence (AID 1988); format: functional, cell-based
[2] = inhibitors of firefly luciferase expression or activity, dose response, H4 neuroglioma cells, luminescence (AID 1990); format: functional, cell-based
[3] = cytotoxicity in HEK-293T cells, dose response, cytotoxicity control for BCR NF-kB inhibitor project, luminescence, B-cell screen hits (AID 489021); format: functional, cell-based;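 also: HEK-293T cells carrying an NF-kB luciferase reporter; cells exposed to compound for about 14 hours before viability readout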
[4] = target: T1, Tyrosine-protein phosphatase non-receptor type 22 (Homo sapiens, UniProt Q9Y2R2); format: functional
T1 sequence (Q9Y2R2 whole entry): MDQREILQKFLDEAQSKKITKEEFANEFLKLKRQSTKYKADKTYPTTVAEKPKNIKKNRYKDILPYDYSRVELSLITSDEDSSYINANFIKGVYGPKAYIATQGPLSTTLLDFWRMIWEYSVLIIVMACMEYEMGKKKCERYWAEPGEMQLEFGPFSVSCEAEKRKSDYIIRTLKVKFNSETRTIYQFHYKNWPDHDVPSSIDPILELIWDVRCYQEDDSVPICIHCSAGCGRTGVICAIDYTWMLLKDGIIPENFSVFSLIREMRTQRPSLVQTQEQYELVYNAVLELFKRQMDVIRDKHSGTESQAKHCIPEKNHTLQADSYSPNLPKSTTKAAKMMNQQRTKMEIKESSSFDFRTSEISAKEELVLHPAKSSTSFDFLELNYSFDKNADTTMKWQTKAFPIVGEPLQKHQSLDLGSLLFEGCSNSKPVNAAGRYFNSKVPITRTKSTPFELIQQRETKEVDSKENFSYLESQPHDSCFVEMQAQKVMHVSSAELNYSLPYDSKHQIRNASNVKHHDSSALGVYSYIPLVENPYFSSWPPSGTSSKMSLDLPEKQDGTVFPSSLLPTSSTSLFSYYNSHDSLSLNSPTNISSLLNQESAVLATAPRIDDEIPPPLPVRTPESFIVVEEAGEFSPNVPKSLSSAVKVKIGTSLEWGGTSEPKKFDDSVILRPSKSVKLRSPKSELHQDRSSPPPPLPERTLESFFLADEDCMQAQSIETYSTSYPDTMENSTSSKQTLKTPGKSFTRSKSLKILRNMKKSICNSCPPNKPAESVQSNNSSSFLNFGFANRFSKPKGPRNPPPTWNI

[5] = target: T2, Tyrosine-protein phosphatase non-receptor type 7 (Homo sapiens, UniProt P35236); format: functional
T2 sequence (P35236 whole entry): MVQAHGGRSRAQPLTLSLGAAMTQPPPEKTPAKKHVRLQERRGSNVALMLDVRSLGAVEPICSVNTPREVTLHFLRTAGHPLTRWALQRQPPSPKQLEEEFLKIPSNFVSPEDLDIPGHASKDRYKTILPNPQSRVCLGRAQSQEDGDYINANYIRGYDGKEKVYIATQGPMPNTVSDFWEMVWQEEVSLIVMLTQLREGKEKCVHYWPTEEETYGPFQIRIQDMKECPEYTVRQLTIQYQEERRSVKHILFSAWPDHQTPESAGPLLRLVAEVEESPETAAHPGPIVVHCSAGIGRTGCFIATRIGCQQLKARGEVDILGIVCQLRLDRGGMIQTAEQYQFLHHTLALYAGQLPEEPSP

[6] = target: T1, Tyrosine-protein phosphatase non-receptor type 22; format: functional; remark: listed apart in the source
[7] = target: Eukaryotic translation initiation factor 4H (Homo sapiens, UniProt Q15056); assay: eIF4H inhibition in translation initiation, SAR follow-up (AID 435011); format: functional
Hexokinase HKDC1 = target: T3, Hexokinase HKDC1 (Homo sapiens, UniProt Q2TB90); assay: HKDC1 hexokinase inhibitors, dose response, biochemical, W721R variant (AID 504729); format: functional
T3 sequence (Q2TB90 whole entry): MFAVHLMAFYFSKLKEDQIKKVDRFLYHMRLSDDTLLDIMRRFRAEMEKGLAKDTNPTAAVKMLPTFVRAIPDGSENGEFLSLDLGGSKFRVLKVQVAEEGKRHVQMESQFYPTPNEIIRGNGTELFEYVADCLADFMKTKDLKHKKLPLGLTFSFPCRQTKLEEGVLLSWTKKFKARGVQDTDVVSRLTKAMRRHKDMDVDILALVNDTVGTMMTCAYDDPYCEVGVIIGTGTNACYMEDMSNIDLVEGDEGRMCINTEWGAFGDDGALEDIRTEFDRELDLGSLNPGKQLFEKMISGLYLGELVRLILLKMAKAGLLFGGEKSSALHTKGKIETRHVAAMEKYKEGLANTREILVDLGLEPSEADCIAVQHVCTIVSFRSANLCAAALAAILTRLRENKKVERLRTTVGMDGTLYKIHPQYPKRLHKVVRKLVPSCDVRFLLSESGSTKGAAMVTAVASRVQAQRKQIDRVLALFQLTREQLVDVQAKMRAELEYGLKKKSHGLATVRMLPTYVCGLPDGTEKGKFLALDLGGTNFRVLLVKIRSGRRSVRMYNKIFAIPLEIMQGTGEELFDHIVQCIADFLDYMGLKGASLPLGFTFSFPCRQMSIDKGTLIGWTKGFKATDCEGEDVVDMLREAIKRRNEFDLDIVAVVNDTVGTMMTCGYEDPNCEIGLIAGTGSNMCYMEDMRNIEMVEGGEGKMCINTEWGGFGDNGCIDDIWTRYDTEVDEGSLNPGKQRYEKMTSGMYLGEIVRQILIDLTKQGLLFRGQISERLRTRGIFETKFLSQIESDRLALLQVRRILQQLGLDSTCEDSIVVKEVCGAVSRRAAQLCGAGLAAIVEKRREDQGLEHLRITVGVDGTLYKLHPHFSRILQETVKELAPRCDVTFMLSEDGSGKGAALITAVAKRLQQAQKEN

[8] = target: Polyadenylate-binding protein 1 (Homo sapiens, UniProt P11940); assay: PABP inhibition in translation initiation, SAR follow-up (AID 435018); format: functional
[9] = target: T4, Zinc finger protein mex-5 (Caenorhabditis elegans, UniProt Q9XUB2); assay: MEX-5/TCR-2 RNA interaction inhibitors, dose response, biochemical, C. elegans, fluorescence polarization (AID 1960)
T4 sequence (Q9XUB2 whole entry): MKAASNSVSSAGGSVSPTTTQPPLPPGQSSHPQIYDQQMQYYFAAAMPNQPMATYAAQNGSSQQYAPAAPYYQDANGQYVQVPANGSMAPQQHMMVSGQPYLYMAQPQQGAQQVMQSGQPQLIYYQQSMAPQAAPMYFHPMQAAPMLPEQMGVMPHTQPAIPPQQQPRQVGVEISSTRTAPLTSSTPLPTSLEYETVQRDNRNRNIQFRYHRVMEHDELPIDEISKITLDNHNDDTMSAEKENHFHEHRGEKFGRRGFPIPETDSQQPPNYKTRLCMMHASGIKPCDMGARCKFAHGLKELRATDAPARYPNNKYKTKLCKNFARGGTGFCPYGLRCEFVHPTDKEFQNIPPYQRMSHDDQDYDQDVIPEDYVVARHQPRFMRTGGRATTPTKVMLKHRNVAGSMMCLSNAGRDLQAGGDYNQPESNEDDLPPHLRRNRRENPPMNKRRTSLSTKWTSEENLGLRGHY

ORF 73 = target: T5, ORF 73 (Human herpesvirus 8, UniProt O40947); assay: inhibitors of C-LANA binding to LBS DNA, dose response, biochemical, fluorescence polarization, cherry-picked samples (AID 504725); set-up: species or system Human gammaherpesvirus 8;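 also: fluorescence polarization of a labeled DNA duplex reporting LANA DNA binding; potency is for inhibitors that block LANA binding to the DNA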
T5 sequence (O40947 whole entry): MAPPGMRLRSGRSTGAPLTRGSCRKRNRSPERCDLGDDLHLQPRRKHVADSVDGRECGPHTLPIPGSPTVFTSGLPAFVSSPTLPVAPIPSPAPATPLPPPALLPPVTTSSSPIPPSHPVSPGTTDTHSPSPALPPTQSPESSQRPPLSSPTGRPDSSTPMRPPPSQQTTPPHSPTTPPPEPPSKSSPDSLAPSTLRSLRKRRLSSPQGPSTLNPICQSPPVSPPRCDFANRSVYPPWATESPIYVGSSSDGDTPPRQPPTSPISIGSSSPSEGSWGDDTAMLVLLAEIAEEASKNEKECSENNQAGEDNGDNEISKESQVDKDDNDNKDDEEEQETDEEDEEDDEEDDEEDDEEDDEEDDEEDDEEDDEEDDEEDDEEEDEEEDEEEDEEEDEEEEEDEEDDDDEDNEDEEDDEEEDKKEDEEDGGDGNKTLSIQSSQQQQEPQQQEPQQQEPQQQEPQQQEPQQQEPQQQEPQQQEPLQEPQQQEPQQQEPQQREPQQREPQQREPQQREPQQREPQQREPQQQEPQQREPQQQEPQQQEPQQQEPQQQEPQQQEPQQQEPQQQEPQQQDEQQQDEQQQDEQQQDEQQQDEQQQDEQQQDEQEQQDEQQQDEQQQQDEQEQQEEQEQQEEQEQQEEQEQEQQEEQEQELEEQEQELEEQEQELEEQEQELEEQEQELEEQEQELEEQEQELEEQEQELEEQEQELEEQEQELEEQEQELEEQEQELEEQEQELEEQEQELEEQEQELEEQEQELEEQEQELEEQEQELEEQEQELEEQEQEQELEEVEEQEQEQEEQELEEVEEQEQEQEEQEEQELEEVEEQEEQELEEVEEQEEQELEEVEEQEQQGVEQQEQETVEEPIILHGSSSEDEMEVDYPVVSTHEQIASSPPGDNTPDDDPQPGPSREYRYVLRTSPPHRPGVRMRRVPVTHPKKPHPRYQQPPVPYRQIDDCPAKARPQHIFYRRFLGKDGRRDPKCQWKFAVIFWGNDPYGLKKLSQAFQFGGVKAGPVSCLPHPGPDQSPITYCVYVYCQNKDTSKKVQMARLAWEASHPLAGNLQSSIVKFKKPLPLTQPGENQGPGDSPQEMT

Salmon testes DNA = assay: DNA intercalators displacing acridine orange, dose response, artefact control for KSHV LANA DNA-binding inhibitor project, biochemical, fluorescence polarization, cherry-picked samples, set 2 (AID 504727); set-up: species or system Salmonidae
[10] = target: T6, RNA-binding protein pos-1 (Caenorhabditis elegans, UniProt G5EF15); assay: inhibitors of POS-1/mex-3 RNA binding, dose response, biochemical, fluorescence polarization (AID 1964);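 also: purified POS-1 fused to maltose binding protein made in E. coli; potency of compounds blocking POS-1 binding to fluorescent RNA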
T6 sequence (G5EF15 whole entry): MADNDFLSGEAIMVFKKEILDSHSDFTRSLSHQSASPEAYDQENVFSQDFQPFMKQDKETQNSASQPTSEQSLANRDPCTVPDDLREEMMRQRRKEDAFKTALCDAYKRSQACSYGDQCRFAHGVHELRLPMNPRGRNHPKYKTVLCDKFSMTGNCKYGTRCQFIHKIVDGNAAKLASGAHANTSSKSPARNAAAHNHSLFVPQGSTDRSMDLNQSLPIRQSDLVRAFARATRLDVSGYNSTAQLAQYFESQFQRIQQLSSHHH

[11] = target: Voltage-dependent T-type calcium channel subunit alpha-1H (Homo sapiens, UniProt O95180); assay: Cav3.2 T-type channel inhibitors, cell-based, synthetic library set 1, calcium flux (AID 493022); format: functional
Voltage-dependent T-type calcium channel subunit alpha-1H, sequence (O95180 whole entry): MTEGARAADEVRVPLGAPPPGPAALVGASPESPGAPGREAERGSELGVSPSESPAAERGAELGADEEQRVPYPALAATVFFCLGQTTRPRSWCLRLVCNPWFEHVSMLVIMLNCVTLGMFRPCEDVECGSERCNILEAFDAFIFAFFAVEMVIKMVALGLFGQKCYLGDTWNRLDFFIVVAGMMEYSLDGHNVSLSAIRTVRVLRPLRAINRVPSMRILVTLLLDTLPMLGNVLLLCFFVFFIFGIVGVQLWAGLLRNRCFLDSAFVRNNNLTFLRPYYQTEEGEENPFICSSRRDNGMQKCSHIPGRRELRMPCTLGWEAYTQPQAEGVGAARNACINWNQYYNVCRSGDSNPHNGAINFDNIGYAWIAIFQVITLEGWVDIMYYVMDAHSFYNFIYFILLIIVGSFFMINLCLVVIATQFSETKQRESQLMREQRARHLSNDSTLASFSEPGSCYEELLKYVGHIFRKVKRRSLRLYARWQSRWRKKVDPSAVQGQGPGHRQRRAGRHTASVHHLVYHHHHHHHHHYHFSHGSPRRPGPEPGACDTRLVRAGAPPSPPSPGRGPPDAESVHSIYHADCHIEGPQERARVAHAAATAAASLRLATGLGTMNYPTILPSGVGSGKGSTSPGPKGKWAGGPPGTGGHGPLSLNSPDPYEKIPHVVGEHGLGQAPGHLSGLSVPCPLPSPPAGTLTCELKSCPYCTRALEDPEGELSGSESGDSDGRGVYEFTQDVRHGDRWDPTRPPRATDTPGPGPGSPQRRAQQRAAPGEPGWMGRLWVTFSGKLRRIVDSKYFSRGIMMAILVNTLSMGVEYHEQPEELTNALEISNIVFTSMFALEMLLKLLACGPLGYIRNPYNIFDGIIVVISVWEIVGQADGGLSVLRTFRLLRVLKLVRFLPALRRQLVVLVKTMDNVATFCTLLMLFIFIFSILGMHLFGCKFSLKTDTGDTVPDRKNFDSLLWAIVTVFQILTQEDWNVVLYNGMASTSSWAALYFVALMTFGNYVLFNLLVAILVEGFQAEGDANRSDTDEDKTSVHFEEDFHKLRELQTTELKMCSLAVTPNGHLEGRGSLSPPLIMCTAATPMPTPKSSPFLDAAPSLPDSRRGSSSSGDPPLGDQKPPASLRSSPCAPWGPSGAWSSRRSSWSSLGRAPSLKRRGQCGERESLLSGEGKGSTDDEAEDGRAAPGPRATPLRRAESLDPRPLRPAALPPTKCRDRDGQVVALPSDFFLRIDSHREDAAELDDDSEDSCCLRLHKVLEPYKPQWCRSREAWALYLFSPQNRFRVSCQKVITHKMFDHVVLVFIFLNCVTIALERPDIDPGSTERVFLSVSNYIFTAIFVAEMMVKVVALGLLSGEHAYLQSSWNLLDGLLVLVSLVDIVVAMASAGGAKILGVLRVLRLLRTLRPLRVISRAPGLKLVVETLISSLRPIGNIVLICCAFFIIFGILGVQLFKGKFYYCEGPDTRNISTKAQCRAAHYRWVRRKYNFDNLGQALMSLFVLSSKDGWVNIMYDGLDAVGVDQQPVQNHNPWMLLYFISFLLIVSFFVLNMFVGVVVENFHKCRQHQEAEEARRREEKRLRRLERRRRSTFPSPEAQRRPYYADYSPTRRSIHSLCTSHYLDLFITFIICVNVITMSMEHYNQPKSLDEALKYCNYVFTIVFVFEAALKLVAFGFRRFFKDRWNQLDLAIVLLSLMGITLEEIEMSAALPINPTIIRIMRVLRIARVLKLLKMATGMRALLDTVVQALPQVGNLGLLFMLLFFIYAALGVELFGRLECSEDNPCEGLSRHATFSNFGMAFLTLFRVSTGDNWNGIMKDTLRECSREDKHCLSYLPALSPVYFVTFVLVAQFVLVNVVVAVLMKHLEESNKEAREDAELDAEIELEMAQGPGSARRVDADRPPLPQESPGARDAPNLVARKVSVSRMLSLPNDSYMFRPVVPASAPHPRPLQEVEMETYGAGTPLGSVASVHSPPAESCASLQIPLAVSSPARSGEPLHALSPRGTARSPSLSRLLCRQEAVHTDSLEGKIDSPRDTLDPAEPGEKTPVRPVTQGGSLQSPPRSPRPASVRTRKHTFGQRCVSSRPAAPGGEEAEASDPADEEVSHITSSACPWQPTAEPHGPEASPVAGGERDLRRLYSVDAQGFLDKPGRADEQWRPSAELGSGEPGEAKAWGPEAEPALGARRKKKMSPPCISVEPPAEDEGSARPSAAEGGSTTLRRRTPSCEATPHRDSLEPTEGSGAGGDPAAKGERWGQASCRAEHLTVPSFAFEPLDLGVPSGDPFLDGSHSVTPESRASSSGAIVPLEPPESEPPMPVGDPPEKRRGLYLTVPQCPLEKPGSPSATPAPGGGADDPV

Mu-type opioid receptor = Mu-type opioid receptor (Homo sapiens, UniProt P35372); assay: SAR Analysis of Antagonists of the MOR Receptor using an Image-Based Assay - Set 3. [Related pubchem assays (depositor defined):AID1777, AID1785, AID1786, AID1966, AID2133, AID2136, AID2284, AID2285, AID2420]; format: functional
Mu-type opioid receptor, sequence (P35372 whole entry): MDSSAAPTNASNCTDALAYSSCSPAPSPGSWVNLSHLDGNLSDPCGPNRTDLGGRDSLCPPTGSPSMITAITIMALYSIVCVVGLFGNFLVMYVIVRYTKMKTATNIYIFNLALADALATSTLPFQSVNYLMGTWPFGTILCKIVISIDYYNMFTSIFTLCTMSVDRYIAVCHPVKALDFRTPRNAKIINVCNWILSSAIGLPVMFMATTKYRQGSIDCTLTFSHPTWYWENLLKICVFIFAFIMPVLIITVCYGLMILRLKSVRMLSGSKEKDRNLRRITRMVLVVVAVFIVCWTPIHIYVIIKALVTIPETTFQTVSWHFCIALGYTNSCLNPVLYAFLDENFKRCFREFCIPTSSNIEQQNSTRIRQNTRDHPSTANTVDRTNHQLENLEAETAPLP

[12] = target: Delta-type opioid receptor (Homo sapiens, UniProt P41143); assay: SAR Analysis of Antagonists of the DOR Receptor using an Image-Based Assay - Set 3. [Related pubchem assays (depositor defined):AID1777, AID1785]; format: functional;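 also: U2OS cells expressing DOR1 and beta-arrestin GFP stimulated with 100 nM SNC80; imaging of GFP-tagged beta-arrestin moving into spots after receptor activation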
Delta-type opioid receptor, sequence (P41143 whole entry): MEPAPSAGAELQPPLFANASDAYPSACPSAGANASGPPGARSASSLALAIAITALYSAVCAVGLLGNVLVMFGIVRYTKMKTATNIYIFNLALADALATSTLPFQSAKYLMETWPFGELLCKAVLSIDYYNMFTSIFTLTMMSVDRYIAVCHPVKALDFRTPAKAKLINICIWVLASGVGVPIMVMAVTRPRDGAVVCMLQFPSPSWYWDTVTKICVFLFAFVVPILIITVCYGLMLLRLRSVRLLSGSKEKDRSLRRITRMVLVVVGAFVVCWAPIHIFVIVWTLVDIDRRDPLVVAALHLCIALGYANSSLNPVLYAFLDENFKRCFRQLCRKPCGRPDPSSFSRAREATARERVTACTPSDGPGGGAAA

[13] = target: T7, Kappa-type opioid receptor (Homo sapiens, UniProt P41145); assay: SAR analysis of Antagonists of the Kappa Opioid Receptor (KOR) using an Image-Based Assay - Set 4. [Related pubchem assays (depositor defined):AID1777, AID1785]; format: functional
T7 sequence (P41145 whole entry): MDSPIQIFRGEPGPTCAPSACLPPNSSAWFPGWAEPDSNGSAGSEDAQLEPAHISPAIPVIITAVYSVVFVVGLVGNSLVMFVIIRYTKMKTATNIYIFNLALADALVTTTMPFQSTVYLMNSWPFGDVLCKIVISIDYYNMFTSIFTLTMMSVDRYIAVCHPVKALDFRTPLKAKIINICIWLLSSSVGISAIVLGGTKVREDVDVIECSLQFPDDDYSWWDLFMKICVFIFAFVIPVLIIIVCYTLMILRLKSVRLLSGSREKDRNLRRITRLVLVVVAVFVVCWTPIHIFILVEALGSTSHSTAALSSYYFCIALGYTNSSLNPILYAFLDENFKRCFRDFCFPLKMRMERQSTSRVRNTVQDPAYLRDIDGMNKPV

[14] = target: T7, Kappa-type opioid receptor; assay: SAR analysis of small molecule antagonists of the kappa opioid receptor via a luminescent beta-arrestin assay - Set 4. [Related pubchem assays (depositor defined):AID1777, AID1778, AID1785, AID1786, AID1966, AID2133, AID2136, AID2285]; format: functional
X-box-binding protein 1 = X-box-binding protein 1 (Homo sapiens, UniProt P17861); format: functional, Cricetulus griseus;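 also: confirmatory dose-response counter-screen serving a CHOP assay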
X-box-binding protein 1, sequence (P17861 whole entry): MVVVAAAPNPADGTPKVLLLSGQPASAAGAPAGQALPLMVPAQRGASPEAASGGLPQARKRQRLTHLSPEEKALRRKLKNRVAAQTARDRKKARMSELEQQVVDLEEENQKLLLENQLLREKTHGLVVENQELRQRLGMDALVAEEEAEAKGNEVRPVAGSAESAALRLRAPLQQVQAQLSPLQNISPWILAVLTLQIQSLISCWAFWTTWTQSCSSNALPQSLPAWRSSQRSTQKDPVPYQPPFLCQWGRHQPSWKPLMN

[15] = target: Induced myeloid leukemia cell differentiation protein Mcl-1 (Homo sapiens, UniProt Q07820); format: functional
INS1 = assay: beta cell apoptosis inhibitors, cytokine rescue, dose response, luminescence, retest (AID 449756); format: functional, cell-based; settings: Rattus norvegicus;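 also: cell death triggered by IL-1 beta plus TNF-alpha plus IFN-gamma mixture; protective hits raise ATP signal compared with cytokine alone wells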
[16] = target: Cystic fibrosis transmembrane conductance regulator/Golgi-associated PDZ and coiled-coil motif-containing protein (Homo sapiens, UniProt P13569+Q9HD26); assay: CAL PDZ peptide-binding inhibitors, dose response, biochemical, fluorescence polarization, Cerulean-tagged CAL PDZ, cherry-picks (AID 504773)
[17] = target: Eukaryotic translation initiation factor 4E (Mus musculus, UniProt P63073); assay: eIF4E–eIF4G protein interaction inhibitors, dose response, biochemical, TR-FRET (AID 855); format: functional;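 also: potency for disrupting eIF4E binding to eIF4GI seen as loss of FRET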
Eukaryotic translation initiation factor 4E, sequence (P63073 whole entry): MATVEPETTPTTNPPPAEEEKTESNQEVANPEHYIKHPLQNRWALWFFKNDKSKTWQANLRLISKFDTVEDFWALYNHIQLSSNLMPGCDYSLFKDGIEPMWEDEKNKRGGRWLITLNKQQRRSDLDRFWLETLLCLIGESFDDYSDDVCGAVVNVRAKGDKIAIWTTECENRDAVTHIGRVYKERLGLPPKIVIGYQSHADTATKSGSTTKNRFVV

Beta-galactosidase = Beta-galactosidase (Escherichia coli, UniProt Q8VNN2); assay: beta-galactosidase enzyme inhibitors and activators, dose response, artefact control for CCR6 antagonist project, biochemical, E. coli enzyme, set 3 (AID 504712); format: functional

Compound: CCc1ccc(-c2nc(C(N)=O)c3nc(O)n(-c4ccccc4OC)c3n2)cc1
IC50 (J774.A1): 12.5 µM (active)
EC50 [1]: 0.185 µM (active)
EC50 [2]: 8.19 µM (active)

Compound: CCCCCOc1ccc(NC(=O)C(=O)NCCCn2ccnc2)cc1
IC50 [3]: > 80 µM (inactive)

IC50 [4]: > 79.4 µM (inactive)
IC50 [5]: > 79.4 µM (inactive)
IC50 [6]: > 79.4 µM (inactive)
Compound: CCN(CCO)Cc1csc2ccc(C(C)(C)C)cc12

Compound: COc1ccc(NC(=O)CSc2ccc(-c3ccco3)nn2)cc1OC
IC50 [7]: 73.8 µM (active)
IC50 (Hexokinase HKDC1): 13.6 µM (active)
IC50 [8]: > 100 µM (inactive)

EC50 [9]: 11.8 µM (active)
AC50 (ORF 73): 73.5 µM (active)
EC50 [10]: 16.7 µM (active)
Compound: CCc1cc[n+](-c2[n-]c(=O)sc2C=O)cc1
AC50 (Salmon testes DNA): 141 µM (active)

EC50 [11]: 2.6 µM (active)
Compound: Cc1ccc(-c2nnc(NC(=O)C(C)Oc3ccccc3)o2)cc1C (stereo unspecified)

IC50 (Mu-type opioid receptor): 6.75 µM (active)
IC50 [12]: > 32 µM (inactive)
IC50 [13]: > 32 µM (inactive)
IC50 [14]: 18.6 µM (inactive)
Compound: Cc1ccc(S(=O)(=O)NCc2ccc(C(=O)NC3CCCN(Cc4ccccc4)C3)cc2)cc1 (stereo unspecified)

Absolute IC50 (XBP1) (X-box-binding protein 1): 10 µM
Compound: COCCn1/c(=N/C(=O)/C=C/c2cccs2)sc2cc(NC(C)=O)ccc21

Compound: CCc1ccc(S(=O)(=O)/N=C2/C=C(Sc3nc[nH]n3)C(=O)c3ccccc32)cc1
IC50 [15]: 5.9 µM (active)
AC50 (INS1): 7.93 µM (active)
AC50 [16]: 23.1 µM (active)
IC50 (Hexokinase HKDC1): 2.46 µM (active)
IC50 [17]: > 64 µM (inactive)
IC50 (Beta-galactosidase): > 66.6 µM (inactive)
